For this test, the system named is SU-DHL-4 cell line. The experiment in a line: SU-DHL-4 cell proliferation assay (Cell Titer-Glo viability). The class given is cell-based. The following applies: Homo sapiens; cell viability IC50 activity level, DLBCL cell line SU-DHL-4, 120 hours post-treatment; read-out: SU-DHL-4 Act. An outline of the steps:
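SU-DHL-4 cells (500/well, RPMI-1640 + 10% FBS) exposed to 20-point compound dilutions (0.5 nM–10 μM, 0.1% DMSO) for 120 h at 37°C, 5% CO2. Viability measured by Cell Titer-Glo luminescence at t0 and at 120 h. IC50 is the concentration giving 50% of DMSO control, from a four-parameter logistic fit.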
Regarding `O=C1CC[C@H](N2C(=O)c3cccc(NCc4ccc(CN5CC(N6CCOCC6)C5)cc4F)c3C2=O)C(=O)N1` [Cpd 208, (S)-2-(2,6-dioxopiperidin-3-yl)-4-(2-fluoro-4-((3-morpholinoazetidin-1-yl)methyl)benzylamino)isoindoline-1,3-dione], the IC50 is below 200 nM. As to `O=C1CC[C@@H](N2C(=O)c3cccc(NCc4ccc(CN5CC(N6CCOCC6)C5)cc4F)c3C2=O)C(=O)N1` [Cpd 209, (R)-2-(2,6-dioxopiperidin-3-yl)-4-(2-fluoro-4-((3-morpholinoazetidin-1-yl)methyl)benzylamino)isoindoline-1,3-dione], the IC50 is below 200 nM. With `O=C1CCC(N2C(=O)c3cccc(NCc4ccc(CN5CCC(N6CCOCC6)CC5)cc4)c3C2=O)C(=O)N1` (stereo not shown) [Cpd 210, 2-(2,6-dioxopiperidin-3-yl)-4-(4-((4-morpholinopiperidin-1-yl)methyl)benzylamino)isoindoline-1,3-dione], the IC50 was in the range of 200 to 500 nM. Next, `Cc1cc(CNc2cccc3c2C(=O)N(C2CCC(=O)NC2=O)C3=O)ccc1CN1CCC(N2CCOCC2)CC1` (stereo not shown) [Cpd 211, 2-(2,6-dioxopiperidin-3-yl)-4-(3-methyl-4-((4-morpholinopiperidin-1-yl)methyl)benzylamino)isoindoline-1,3-dione]: 200 to 500 nM; `O=C1CCC(N2C(=O)c3cccc(NCc4ccc(CN5CCC(C6CCOCC6)CC5)cc4)c3C2=O)C(=O)N1` (stereo not shown) [Cpd 213, 2-(2,6-dioxopiperidin-3-yl)-4-(4-((4-(tetrahydro-2H-pyran-4-yl)piperridin-1-yl)methyl)benzylamino)isoindoline-1,3-dione]: below 200 nM; `Cc1cc(CNc2cccc3c2C(=O)N(C2CCC(=O)NC2=O)C3=O)ccc1CN1CCC(C2CCOCC2)CC1` (stereo not shown) [Cpd 214, 2-(2,6-dioxopiperidin-3-yl)-4-(3-methyl-4-((4-(tetrahydro-2H-pyran-4-yl)piperidin-1-yl)methyl)benzylamino)isoindoline-1,3-dione]: below 200 nM. Next, `O=C1CCC(N2C(=O)c3cccc(NCc4ccc(CN5CCC(C6CCOCC6)CC5)cc4F)c3C2=O)C(=O)N1` (stereo not shown) [Cpd 215, 2-(2,6-dioxopiperidin-3-yl)-4-(2-fluoro-4-((4-(tetrahydro-2H-pyran-4-yl)piperidin-1-yl)methyl)benzylamino)isoindoline-1,3-dione]: below 200 nM; `O=C1CCC(N2C(=O)c3cccc(NCc4ccc(CN5CC(N6CCCC6)C5)cc4)c3C2=O)C(=O)N1` (stereo not shown) [Cpd 216, 2-(2,6-dioxopiperidin-3-yl)-4-(4-((3-(pyrrolidin-1-yl)azetidin-1-yl)methyl)benzylamino)isoindoline-1,3-dione]: below 200 nM.

As to `Cc1cc(CNc2cccc3c2C(=O)N(C2CCC(=O)NC2=O)C3=O)ccc1CN1CC(N2CCCC2)C1` (stereo not shown) [Cpd 217, 2-(2,6-dioxopiperidin-3-yl)-4-(3-methyl-4-((3-(pyrrolidin-1-yl)azetidin-1-yl)methyl)benzylamino)isoindoline-1,3-dione], the IC50 is below 200 nM. Regarding `O=C1CCC(N2C(=O)c3cccc(NCc4ccc(CN5CC(N6CCCC6)C5)cc4F)c3C2=O)C(=O)N1` (stereo not shown) [Cpd 218, 2-(2,6-dioxopiperidin-3-yl)-4-(2-fluoro-4-((3-(pyrrolidin-1-yl)azetidin-1-yl)methyl)benzylamino)isoindoline-1,3-dione], the IC50 was below 200 nM. With `O=C1CCC(N2C(=O)c3cccc(NCc4ccc(CN5CC6(CCOCC6)C5)cc4)c3C2=O)C(=O)N1` (stereo not shown) [Cpd 219, 4-(4-(7-oxa-2-azaspiro[3.5]nonan-2-ylmethyl)benzylamino)-2-(2,6-dioxopiperidin-3-yl)isoindoline-1,3-dione], the IC50 was below 200 nM.

In the case of `Cc1cc(CNc2cccc3c2C(=O)N(C2CCC(=O)NC2=O)C3=O)ccc1CN1CC2(CCOCC2)C1` (stereo not shown) [Cpd 220, 4-(4-(7-oxa-2-azaspiro[3.5]nonan-2-ylmethyl)-3-methylbenzylamino)-2-(2,6-dioxopiperidin-3-yl)isoindoline-1,3-dione], the IC50 was below 200 nM. Next, `O=C1CCC(N2C(=O)c3cccc(NCc4ccc(CN5CC6(CCOCC6)C5)cc4F)c3C2=O)C(=O)N1` (stereo not shown) [Cpd 221, 4-(4-(7-oxa-2-azaspiro[3.5]nonan-2-ylmethyl)-2-fluorobenzylamino)-2-(2,6-dioxopiperidin-3-yl)isoindoline-1,3-dione]: below 200 nM; `C[C@@H]1CN(C2CN(Cc3ccc(CNc4cccc5c4C(=O)N(C4CCC(=O)NC4=O)C5=O)c(F)c3)C2)C[C@H](C)O1` (stereo partly drawn) [Cpd 222, 4-(4-((3-((2R,6S)-2,6-dimethylmorpholino)azetidin-1-yl)methyl)-2-fluorobenzylamino)-2-(2,6-dioxopiperidin-3-yl)isoindoline-1,3-dione]: 200 to 500 nM. With `Cc1cc(CNc2cccc3c2C(=O)N(C2CCC(=O)NC2=O)C3=O)ccc1CN1CC(N2CC3CCC(C2)O3)C1` (stereo not shown) [Cpd 223, 4-(4-((3-(8-oxa-3-azabicyclo[3.2.1]octan-3-yl)azetidin-1-yl)methyl)-3-methylbenzylamino)-2-(2,6-dioxopiperidin-3-yl)isoindoline-1,3-dione], the IC50 was below 200 nM.

Consider `O=C1CCC(N2C(=O)c3cccc(NCc4ccc(CN5CC(N6CC7CCC(C6)O7)C5)cc4)c3C2=O)C(=O)N1` (stereo not shown) [Cpd 224, 4-(4-((3-(8-oxa-3-azabicyclo[3.2.1]octan-3-yl)azetidin-1-yl)methyl)benzylamino)-2-(2,6-dioxopiperidin-3-yl)isoindoline-1,3-dione], for which the IC50 was below 200 nM. Consider `O=C1CCC(N2C(=O)c3cccc(NCc4ccc(CN5CC(N6CC7CCC(C6)O7)C5)cc4F)c3C2=O)C(=O)N1` (stereo not shown) [Cpd 225, 4-(4-((3-(8-oxa-3-azabicyclo[3.2.1]octan-3-yl)azetidin-1-yl)methyl)-2-fluorobenzylamino)-2-(2,6-dioxopiperidin-3-yl)isoindoline-1,3-dione], for which the IC50 is below 200 nM. Turning to `O=C1CCC(N2C(=O)c3cccc(NCc4ccc(CN5CC6(COC6)C5)cc4F)c3C2=O)C(=O)N1` (stereo not shown) [Cpd 226, 4-(4-(2-oxa-6-azaspiro[3.3]heptan-6-ylmethyl)-2-fluorobenzylamino)-2-(2,6-dioxopiperidin-3-yl)isoindoline-1,3-dione], the IC50 was 200 to 500 nM. Turning to `O=C1CCC(N2C(=O)c3cccc(NCc4ccc(CN5CCC6(COC6)C5)cc4F)c3C2=O)C(=O)N1` (stereo not shown) [Cpd 227, 4-(4-(2-oxa-6-azaspiro[3.4]octan-6-ylmethyl)-2-fluorobenylamino)-2-(2,6-dioxopiperidin-3-yl)isoindoline-1,3-dione], the IC50 is below 200 nM. For `Cc1cc(CNc2cccc3c2C(=O)N(C2CCC(=O)NC2=O)C3=O)ccc1CN1CC2(COC2)C1` (stereo not shown) [Cpd 228, 4-(4-(2-oxa-6-aaspiro[3.3]heptan-6-ylmethyl)-3-methylbenzylamino)-2-(2,6-dioxopiperidin-3-yl)isoindoline-1,3-dione], the IC50 lay within 200 to 500 nM. Then `Cc1cc(CNc2cccc3c2C(=O)N(C2CCC(=O)NC2=O)C3=O)ccc1CN1CCC2(COC2)C1` (stereo not shown) [Cpd 229, 4-(4-(2-oxa-6-azaspiro[3.4]octan-6-ylmethyl)-3-methylbenzylamino)-2-(2,6-dioxopiperidin-3-yl)isoindoline-1,3-dione], with 501 to 750 nM; and `O=C1CCC(N2C(=O)c3cccc(NCc4ccc(CN5CC6(CCCO6)C5)cc4F)c3C2=O)C(=O)N1` (stereo not shown) [Cpd 230, 4-(4-(5-oxa-2-azaspiro[3.4]octan-2-ylmethyl)-2-fluorobenzylamino)-2-(2,6-dioxopiperidin-3-yl)isoindoline-1,3-dione], with below 200 nM.

Values taken from US11358952B2, “Substituted 4-aminoisoindoline-1,3-dione compounds, compositions thereof, and methods of treatment therewith” (Celgene Corporation, priority 2018, dated 2022).
